Experimental data taken from US9505796B2, “Phosphorylated A2A receptor agonists” (Crozet Medical GMBH, priority 2006, dated 2016).
Where “and” joins values, the source holds several entries; their conditions need not be identical. Identical values can stand only once.

What was measured:
[1] = target: T1, A1 receptor rat brain cortical membranes (Rattus norvegicus, UniProt P25099); assay: A1 adenosine receptor radioligand binding vs. [3H]CCPA; conditions: rat brain cortical membranes vs. [3H]CCPA (agonist radioligand)
T1 construct: A1 receptor rat brain; from tissue; host or cells: rat brain cortical membranes
T1 sequence (P25099 1-326): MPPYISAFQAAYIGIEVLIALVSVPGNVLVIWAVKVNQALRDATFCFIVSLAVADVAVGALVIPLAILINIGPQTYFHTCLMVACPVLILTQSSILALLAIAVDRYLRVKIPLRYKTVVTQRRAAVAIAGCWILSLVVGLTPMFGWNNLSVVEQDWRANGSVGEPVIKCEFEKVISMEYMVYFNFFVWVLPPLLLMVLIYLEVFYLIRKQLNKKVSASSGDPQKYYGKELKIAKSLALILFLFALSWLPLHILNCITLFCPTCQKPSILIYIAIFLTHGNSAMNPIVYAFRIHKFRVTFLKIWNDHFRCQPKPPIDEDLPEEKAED
Source text: (§1) Tris was obtained from Acros Organics (Leverkusen, Germany); DMSO was from Fluka (Switzerland), HCl was from Merck, HAT supplement from Gibco. [^3H]CCPA ([^3H]2-chloro-N^6-cyclopentyladenosine), [^3H]MSX-2 ([^3H]3-(3-hydroxypropyl)-7-methyl-8-(m-methoxy-styryl)-1-propargylxanthine) (84 Ci/mmol), and [^3H]DSB-11 ([^3H]8-ethyl-4-methyl-2-phenyl-(8R)-4,5,7,8-tetrahydro-1H-imidazo[2,1-i]-purin-5-one (53 Ci/mmol)) were custom-labeled by Amersham. All other chemical reagents, cell culture materials and adenosine receptor ligands were obtained from Sigma.
(§2) Radioligand binding studies were performed as previously described.^7,8

[2] = target: T2, A2A receptor rat brain striatal membranes (Rattus norvegicus, UniProt P30543); assay: A2A adenosine receptor radioligand binding, rat brain striatal membranes
T2 construct: A2A receptor rat brain; from tissue; host or cells: rat brain striatal membranes
Source text: as §1, §2

[3] = target: T3, A3 receptor human recombinant receptors expressed in CHO cells (Homo sapiens, UniProt P0DMS8); assay: A3 adenosine receptor radioligand binding vs. [3H]PSB-11; conditions: human recombinant receptors in CHO cells vs. [3H]PSB-11 (antagonist radioligand; agonist affinities underestimated)
T3 construct: expressed in transfected cells; host or cells: CHO cells
T3 sequence (P0DMS8 1-318): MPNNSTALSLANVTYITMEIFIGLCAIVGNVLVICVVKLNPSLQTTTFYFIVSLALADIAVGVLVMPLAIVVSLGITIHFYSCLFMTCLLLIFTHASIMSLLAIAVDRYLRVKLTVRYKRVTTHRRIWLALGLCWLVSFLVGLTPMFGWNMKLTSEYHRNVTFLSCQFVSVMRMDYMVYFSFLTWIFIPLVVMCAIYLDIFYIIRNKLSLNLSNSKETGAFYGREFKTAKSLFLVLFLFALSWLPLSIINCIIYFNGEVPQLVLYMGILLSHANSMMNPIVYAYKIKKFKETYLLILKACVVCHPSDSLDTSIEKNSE
Source text: as §1, §2

[4] = target: T4, recombinant soluble glutathione-S-transferase/ecto-5′-nucleotidase fusion protein (rat enzyme) (Rattus norvegicus, UniProt P21588); assay: Ecto-5′-nucleotidase substrate specificity assay by capillary electrophoresis; type: biochemical; conditions: 500 μM nucleoside 5′-monophosphate, 37° C., 20 min; relative to AMP set at 100%; n = 3
T4 construct: Catalytically active recombinant soluble glutathione-S-transferase/ecto-5′-nucleotidase fusion protein; Dr. Herbert Zimmermann, University of Frankfurt (gift); host or cells: insect cells, baculovirus system
T4 sequence (P21588 29-551 limits assumed): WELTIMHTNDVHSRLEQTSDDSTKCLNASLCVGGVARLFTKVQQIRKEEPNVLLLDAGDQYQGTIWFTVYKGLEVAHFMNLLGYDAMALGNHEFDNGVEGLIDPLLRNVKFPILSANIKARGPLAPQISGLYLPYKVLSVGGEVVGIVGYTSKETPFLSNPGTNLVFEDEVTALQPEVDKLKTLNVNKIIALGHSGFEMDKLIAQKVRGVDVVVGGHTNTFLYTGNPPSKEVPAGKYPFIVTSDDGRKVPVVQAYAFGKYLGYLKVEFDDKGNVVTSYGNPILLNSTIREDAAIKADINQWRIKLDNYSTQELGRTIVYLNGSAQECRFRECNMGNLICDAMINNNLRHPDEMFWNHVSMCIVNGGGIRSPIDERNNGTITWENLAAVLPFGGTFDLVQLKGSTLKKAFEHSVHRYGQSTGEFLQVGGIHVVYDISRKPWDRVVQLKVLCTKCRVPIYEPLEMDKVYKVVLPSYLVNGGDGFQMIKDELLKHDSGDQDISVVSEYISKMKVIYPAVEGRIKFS
Protocol: Catalytically active recombinant soluble glutathione-S-transferase/ecto-5′-nucleotidase fusion protein (rat enzyme) was expressed in insect cells using the baculovirus system and purified by affinity chromatography using agarose-coupled GSH as previously described.^6 The enzyme was obtained from Prof. Dr. Herbert Zimmermann, University of Frankfurt.
Compounds were dissolved in DMSO to obtain 5.0 mM stock solutions. These were further diluted to obtain 1 mM solutions in assay buffer (10 mM Hepes, pH 7.4, 2 mM MgCl2, 1 mM CaCl2). The 1 mM solutions were further diluted in the same buffer as required for the standard calibration curves and the enzyme assays.
CE separations were carried out using a P/ACE MDQ system (Beckman Coulter Instruments, Fullerton, Calif., USA) equipped with a DAD detection system. The electrophoretic separations were carried out using an eCAP fused-silica capillary [30 cm (20 cm effective length), ×75 μm internal diameter (I.D), ×375 μm outside diameter (0.D) obtained from Beckman Coulter]. The following conditions were applied: T=25° C., λmax=232 nm, voltage=15 kV, running buffer 40 mM sodium borate buffer, pH 9.1. The capillary was washed with 0.1 M NaOH for 2 min, deionized water for 1 min, and running buffer for 1 min before each injection. Injections were made by applying 0.1 psi of pressure to the sample solution for 30 s. The amount of adenosine or other nucleosides formed was determined. The CE instrument was fully controlled through a personal computer, which operated with the analysis software 32 KARAT obtained from Beckman Coulter. Electropherograms were evaluated using the same software.
Ecto-5′-nucleotidase substrate specificity assays were performed by using capillary electrophoresis method. Enzyme substrate assays were carried out at 37° C. in a final volume of 100 μl. The reaction mixture contained 500 μM of the nucleoside 5′-monophosphate to be investigated dissolved in reaction buffer (10 mM Hepes, pH 7.4, 2 mM MgCl2, 1 mM CaCl2). The reactions were initiated by adding 10 μl of the appropriately diluted enzyme and was then allowed to proceed at 37° C. for 20 min. The reaction was stopped by heating the mixture at 99° C. for 5 min. Aliquots of 50 μl of the reaction mixture were transferred to mini CE vials and injected into the CE instrument under the conditions described above. The absorbance at 232 nm was monitored continuously and the nucleoside concentrations were determined from the area under each absorbance peak. The experiments were repeated twice with triplicate injections. Control experiments were performed in the absence of substrate and in the absence of enzyme in order to take into account the spontaneous hydrolysis of nucleoside-5′ monophosphates under the experimental conditions, which always amounted to less than 1%.
For the quantification of the dephosphorylation reaction products, we applied the internal normalization method. Thus, the individual peak areas reflected directly the relative content of a corresponding analyte. […] It was verified that in fact there were no observable differences in detector response at the used wavelength and thus no additional correction factors had to be employed for the calculation of the amount of product relative to the amount of substrate. This method is also completely independent of the amount of substrate injected into the capillary which represents 100% at zero reaction time.
Besides AMP, other nucleoside 5′-monophosphates (FIG. 1) were investigated as alternative substrates of ecto-5′-NT. All nucleotides (AMP) were used at a concentration of 500 μM in the presence of 2 mM MgCl2, 1 mM CaCl2, 10 mM Hepes, pH, 7.4, and suitably diluted ecto-5′-NT. Some of the nucleoside 5′-monophosphates were efficiently dephosphorylated to the corresponding nucleosides by the enzyme (Table 1).

[5] = rat brain striatal membranes vs. [3H]MSX-2 (antagonist radioligand; agonist affinities underestimated)

T2 sequence (P30543 whole entry): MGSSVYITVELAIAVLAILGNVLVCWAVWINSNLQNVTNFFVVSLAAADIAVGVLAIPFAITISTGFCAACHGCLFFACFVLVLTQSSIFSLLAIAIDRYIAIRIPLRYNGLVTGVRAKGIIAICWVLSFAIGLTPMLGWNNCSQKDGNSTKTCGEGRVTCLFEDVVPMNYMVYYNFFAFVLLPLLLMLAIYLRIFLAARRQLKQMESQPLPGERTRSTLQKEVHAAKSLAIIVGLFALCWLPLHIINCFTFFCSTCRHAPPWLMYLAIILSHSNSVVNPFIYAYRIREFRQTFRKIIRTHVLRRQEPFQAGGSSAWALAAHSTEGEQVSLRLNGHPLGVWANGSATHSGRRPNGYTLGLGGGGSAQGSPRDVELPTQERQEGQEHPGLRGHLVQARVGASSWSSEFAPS

| Dephosphorylation (%) by ecto-5′-nucleotidase in comparison with AMP [4] | Compound | Ki [3] [nM] | also measured |
| --- | --- | --- | --- |
| – | 2-(Benzylthio)adenosine-5′-monophosphate [Compound 8] | 120 | Ki [1]: 927 nM; Ki [2, 5]: 8560 nM |
| – | 2-(Cyclohexylethylthio)adenosine-5′-monophosphate [Compound 3] | 3600 | – |
| – | 2-(Cyclohexylmethylthio)adenosine-5′-monophosphate [Compound 2] | 1700 | – |
| – | 2-(Hexylthio)adenosine-5′-monophosphate [Compound 6] | 2300 | Ki [1]: 256 nM; Ki [2, 5]: 1000 nM |
| – | 2-(Phenylethylthio)adenosine-5′-monophosphate [Compound 9] | 1200 | – |
| – | 2-(Propylthio)adenosine-5′-monophosphate [Compound 4] | – | Ki [1]: 1270 nM; Ki ([2]; rat brain striatal membranes vs. [3H]CGS21680 (agonist radioligand)): 1350 nM |
| 100 ± 1.15% | Nc1ncnc2c1ncn2[C@@H]1O[C@H](COP(=O)(O)O)[C@@H](O)[C@H]1O [AMP, adenosine monophosphate, reference compound] | – | – |
| 27.5 ± 1.45% | Nc1nc(SC2CCCCC2)nc2c1ncn2[C@@H]1O[C@H](COP(=O)(O)O)[C@@H](O)[C@H]1O [Compound 1, 2-(Cyclohexylthio)adenosine-5′-monophosphate] | – | – |
| 70.5 ± 1.17% | Nc1nc(SCC2CCCCC2)nc2c1ncn2[C@@H]1O[C@H](COP(=O)(O)O)[C@@H](O)[C@H]1O [Compound 2, 2-(Cyclohexylmethylthio)adenosine-5′-monophosphate] | – | – |
| 95% and 95.7 ± 1.15% | Nc1nc(SCCC2CCCCC2)nc2c1ncn2[C@@H]1O[C@H](COP(=O)(O)O)[C@@H](O)[C@H]1O [Compound 3, 2-(Cyclohexylethylthio)adenosine-5′-monophosphate] | – | – |
| 46.8 ± 10.5% | CCCSc1nc(N)c2ncn([C@@H]3O[C@H](COP(=O)(O)O)[C@@H](O)[C@H]3O)c2n1 [Compound 4, 2-(Propylthio)adenosine-5′-monophosphate] | – | – |
| 0% | C=CCSc1nc(N)c2ncn([C@@H]3O[C@H](COP(=O)(O)O)[C@@H](O)[C@H]3O)c2n1 [Compound 5, 2-(Allylthio)adenosine-5′-monophosphate] | – | – |
| 84.2 ± 2.61% | CCCCCCSc1nc(N)c2ncn([C@@H]3O[C@H](COP(=O)(O)O)[C@@H](O)[C@H]3O)c2n1 [Compound 6, 2-(Hexylthio)adenosine-5′-monophosphate] | – | – |
| 0% | Nc1nc(SCc2ccccc2)nc2c1ncn2[C@@H]1O[C@H](COP(=O)(O)O)[C@@H](O)[C@H]1O [Compound 8, 2-(Benzylthio)adenosine-5′-monophosphate] | – | – |
| 0% | Nc1nc(SCCc2ccccc2)nc2c1ncn2[C@@H]1O[C@H](COP(=O)(O)O)[C@@H](O)[C@H]1O [Compound 9, 2-(Phenylethylthio)adenosine-5′-monophosphate] | – | – |
| – | C#CCSc1nc(N)c2ncn([C@@H]3O[C@H](COP(=O)(O)O)[C@@H](O)[C@H]3O)c2n1 [Example No. 10, 2-Propargylthioadenosine-5′-monophosphate] | 10400 | Ki [1]: 994 nM |
